Results on 71 molecules are retold here after ChEMBL document CHEMBL3244417, “Potential antitumor agents. 32. Role of agent base strength in the quantitative structure--antitumor relationships for 4'-(9-acridinylamino)methanesulfonanilide analogues” (J Med Chem, 1979).

A short description of the data set: physchem.
Description: Dissociation constant, pKa of the compound by UV spectrophotometric analysis
`CCCS(=O)(=O)Nc1ccc(Nc2c3ccccc3nc3ccccc23)c(OC)c1` registered a pKa of 7.41.
Under `CCS(=O)(=O)Nc1ccc(Nc2c3ccccc3nc3ccccc23)c(OC)c1` stands 7.4; under `CCCCS(=O)(=O)Nc1ccc(Nc2c3ccccc3nc3ccccc23)c(OC)c1`, 7.41.
The value for `CCS(=O)(=O)Nc1ccc(Nc2c3ccccc3nc3ccccc23)cc1` was 7.19; that for `CCCS(=O)(=O)Nc1ccc(Nc2c3ccccc3nc3ccccc23)cc1` was 7.2.
For `CCCCS(=O)(=O)Nc1ccc(Nc2c3ccccc3nc3ccccc23)cc1`, the pKa stood at 7.18.
Under `CCCCCS(=O)(=O)Nc1ccc(Nc2c3ccccc3nc3ccccc23)cc1` stands 7.19; under `CCCCCCS(=O)(=O)Nc1ccc(Nc2c3ccccc3nc3ccccc23)cc1`, 7.17; under `CCS(=O)(=O)Nc1ccc(Nc2c3ccccc3nc3cc(NC(C)=O)ccc23)cc1`, 7.35.
In the case of `CCCS(=O)(=O)Nc1ccc(Nc2c3ccccc3nc3cc(NC(C)=O)ccc23)cc1`, the pKa is 7.33.
Molecule `CCCCS(=O)(=O)Nc1ccc(Nc2c3ccccc3nc3cc(NC(C)=O)ccc23)cc1` yielded a pKa of 7.32.
In the case of `CCCCCS(=O)(=O)Nc1ccc(Nc2c3ccccc3nc3cc(NC(C)=O)ccc23)cc1`, the pKa came to 7.35.
The value for `CCCCCCS(=O)(=O)Nc1ccc(Nc2c3ccccc3nc3cc(NC(C)=O)ccc23)cc1` was 7.34; that for `COc1cc(NS(C)(=O)=O)ccc1Nc1c2ccccc2nc2ccccc12` was 7.34; that for `CCCCCS(=O)(=O)Nc1ccc(Nc2c3ccccc3nc3ccccc23)c(OC)c1` was 7.39.
With `CCCCCCS(=O)(=O)Nc1ccc(Nc2c3ccccc3nc3ccccc23)c(OC)c1`, the pKa was 7.42.
The value for `COc1cc(NS(C)(=O)=O)ccc1Nc1c2ccccc2nc2c(C(N)=O)cccc12` was 6.37; that for `CCS(=O)(=O)Nc1ccc(Nc2c3ccccc3nc3c(C(N)=O)cccc23)c(OC)c1` was 6.35.
The value for `CCCS(=O)(=O)Nc1ccc(Nc2c3ccccc3nc3c(C(N)=O)cccc23)c(OC)c1` was 6.35; that for `CCCCS(=O)(=O)Nc1ccc(Nc2c3ccccc3nc3c(C(N)=O)cccc23)c(OC)c1` was 6.34.
The molecule `CCCCCS(=O)(=O)Nc1ccc(Nc2c3ccccc3nc3c(C(N)=O)cccc23)c(OC)c1` displayed a pKa of 6.36.
The value for `NC(=O)CCCCc1ccc(Nc2c3ccccc3nc3ccccc23)cc1` was 7.7; that for `NC(=O)CCCCCc1ccc(Nc2c3ccccc3nc3ccccc23)cc1` was 7.7; that for `NC(=O)CCCCCCCc1ccc(Nc2c3ccccc3nc3ccccc23)cc1` was 7.7.
The value for `NC(=O)CCCCCCCCc1ccc(Nc2c3ccccc3nc3ccccc23)cc1` was 7.7.
In turn, `NC(=O)CCCc1ccc(Nc2c3ccccc3nc3ccccc23)cc1` yielded a pKa of 7.67.
The value for `NC(=O)CCCCCCc1ccc(Nc2c3ccccc3nc3ccccc23)cc1` was 7.7; that for `CCCCCCCS(=O)(=O)Nc1ccc(Nc2c3ccccc3nc3ccccc23)c(OC)c1` was 7.42; that for `CCCCCCCCS(=O)(=O)Nc1ccc(Nc2c3ccccc3nc3ccccc23)c(OC)c1` was 7.44.
The value for `COc1cc(NS(C)(=O)=O)ccc1Nc1c2ccccc2nc2cc(NC(C)=O)ccc12` was 7.56.
Consider `CCS(=O)(=O)Nc1ccc(Nc2c3ccccc3nc3cc(NC(C)=O)ccc23)c(OC)c1`, for which the pKa was found to be 7.54.
The value for `CCCS(=O)(=O)Nc1ccc(Nc2c3ccccc3nc3cc(NC(C)=O)ccc23)c(OC)c1` was 7.57; that for `CCCCS(=O)(=O)Nc1ccc(Nc2c3ccccc3nc3cc(NC(C)=O)ccc23)c(OC)c1` was 7.56; that for `CCCCCS(=O)(=O)Nc1ccc(Nc2c3ccccc3nc3cc(NC(C)=O)ccc23)c(OC)c1` was 7.54.
The value for `CCCCCCS(=O)(=O)Nc1ccc(Nc2c3ccccc3nc3cc(NC(C)=O)ccc23)c(OC)c1` was 7.54; that for `CCCCCCCS(=O)(=O)Nc1ccc(Nc2c3ccccc3nc3cc(NC(C)=O)ccc23)c(OC)c1` was 7.55.
With `COc1ccc2c(Nc3ccc(NS(C)(=O)=O)cc3OC)c3ccccc3nc2c1`, the pKa was 7.39.
Under `CCS(=O)(=O)Nc1ccc(Nc2c3ccccc3nc3cc(OC)ccc23)c(OC)c1` stands 7.36.
Under `CCCS(=O)(=O)Nc1ccc(Nc2c3ccccc3nc3cc(OC)ccc23)c(OC)c1` stands 7.38; under `CCCCS(=O)(=O)Nc1ccc(Nc2c3ccccc3nc3cc(OC)ccc23)c(OC)c1`, 7.35; under `CCOc1ccc2c(Nc3ccc(NS(C)(=O)=O)cc3OC)c3ccccc3nc2c1`, 7.37.
Under `CCCOc1ccc2c(Nc3ccc(NS(C)(=O)=O)cc3OC)c3ccccc3nc2c1` stands 7.36; under `CCCCOc1ccc2c(Nc3ccc(NS(C)(=O)=O)cc3OC)c3ccccc3nc2c1`, 7.34; under `COc1cc(NS(C)(=O)=O)ccc1Nc1c2ccccc2nc2cc(OCCO)ccc12`, 7.36.
`COc1cc(NS(C)(=O)=O)ccc1Nc1c2ccccc2nc2cc(OCC(O)CO)ccc12` (stereo unspecified) came in with a pKa of 7.
Under `CNC(=O)COc1ccc2c(Nc3ccc(NS(C)(=O)=O)cc3OC)c3ccccc3nc2c1` stands 7.35.
`COc1cc(NS(C)(=O)=O)ccc1Nc1c2ccccc2nc2cc(OCCCC(N)=O)ccc12`: the pKa is 7.36.
The value for `COc1cc(NS(C)(=O)=O)ccc1Nc1c2ccccc2nc2ncccc12` was 6.09; that for `CCS(=O)(=O)Nc1ccc(Nc2c3ccccc3nc3ncccc23)c(OC)c1` was 6.07.
Under `CCCS(=O)(=O)Nc1ccc(Nc2c3ccccc3nc3ncccc23)c(OC)c1` stands 6.04.
The value for `CCCCS(=O)(=O)Nc1ccc(Nc2c3ccccc3nc3ncccc23)c(OC)c1` was 6.06; that for `CCCCCS(=O)(=O)Nc1ccc(Nc2c3ccccc3nc3ncccc23)c(OC)c1` was 6.05.
`CCCCCCS(=O)(=O)Nc1ccc(Nc2c3ccccc3nc3ncccc23)c(OC)c1` showed a pKa of 6.03.
The value for `CCCCCCCS(=O)(=O)Nc1ccc(Nc2c3ccccc3nc3ncccc23)c(OC)c1` was 6.04; that for `COc1cc(NS(C)(=O)=O)ccc1Nc1c2ccccc2nc2cc([N+](=O)[O-])ccc12` was 5.72.
Molecule `CCS(=O)(=O)Nc1ccc(Nc2c3ccccc3nc3cc([N+](=O)[O-])ccc23)c(OC)c1` returned a pKa of 5.7.
As for `CCCS(=O)(=O)Nc1ccc(Nc2c3ccccc3nc3cc([N+](=O)[O-])ccc23)c(OC)c1`, the pKa amounted to 5.69.
Under `CCCCS(=O)(=O)Nc1ccc(Nc2c3ccccc3nc3cc([N+](=O)[O-])ccc23)c(OC)c1` stands 5.71.
As for `CCCCCS(=O)(=O)Nc1ccc(Nc2c3ccccc3nc3cc([N+](=O)[O-])ccc23)c(OC)c1`, the pKa stood at 5.69.
Under `CCCCCCS(=O)(=O)Nc1ccc(Nc2c3ccccc3nc3cc([N+](=O)[O-])ccc23)c(OC)c1` stands 5.7.
The value for `CCCCCCCS(=O)(=O)Nc1ccc(Nc2c3ccccc3nc3cc([N+](=O)[O-])ccc23)c(OC)c1` was 5.69; that for `CCCCCCS(=O)(=O)Nc1ccc(Nc2c3ccccc3nc3c(C(N)=O)cccc23)c(OC)c1` was 6.33.
Under `CCCCCCCS(=O)(=O)Nc1ccc(Nc2c3ccccc3nc3c(C(N)=O)cccc23)c(OC)c1` stands 6.33; under `CCCCNC(=O)c1cccc2c(Nc3ccc(NS(C)(=O)=O)cc3OC)c3ccccc3nc12`, 6.36.
`CCCCNC(=O)c1cccc2c(Nc3ccc(NS(=O)(=O)CCC)cc3OC)c3ccccc3nc12`: the pKa was determined as 6.35.
The value for `CCCCCS(=O)(=O)Nc1ccc(Nc2c3ccccc3nc3c(C(=O)NCCCC)cccc23)c(OC)c1` was 6.36.
Regarding `CNC(=O)c1cccc2c(Nc3ccc(NS(C)(=O)=O)cc3OC)c3ccccc3nc12`, the pKa worked out at 6.36.
`COc1cc(NS(C)(=O)=O)ccc1Nc1c2ccccc2nc2c(C(=O)N(C)C)cccc12`: the pKa amounted to 6.16.
The value for `COc1cc(NS(C)(=O)=O)ccc1Nc1c2ccccc2nc2c(C(=O)NCC(N)=O)cccc12` was 6.18.
Under `CNC(=O)CNC(=O)c1cccc2c(Nc3ccc(NS(C)(=O)=O)cc3OC)c3ccccc3nc12` stands 6.2; under `COc1cc(NS(C)(=O)=O)ccc1Nc1c2ccccc2nc2c(C(=O)NCC(O)CO)cccc12` (stereo unspecified), 6.34.

As usually defined, the pKa is the negative logarithm of the acid dissociation constant. Lower therefore signals a group that gives up its proton readily.
